pEC50, pIC50: −log10 of the molar value. Like-named read-outs stand apart in the source and are kept apart here. Bounds are passed on as bounds.

The test system of data set [1] is HUH7-ZikaPRVABC59. Description: microbe, parasite or virus in culture. It counts as cell-based. Conditions: Zika virus.
Data set [2] has as its system HCV Replicon. Nature of the data set: microbe, parasite or virus in culture. The class given is cell-based. Conditions: Hepatitis C virus.
A short description of data set [3]: in vitro. Conditions: human.
A short description of data set [4]: in vitro.
Data set [5] concerns CEM-SS/HIVRF. The class given is cell-based, HIV1.
The test system of data set [6] is CEM-SS.
In data set [7] the test system is E. coli.
The test system of data set [8] is protein synthesis. Conditions: read-out: IC50 protein synthesis inhibition; cited from earlier work.
Data set [9] is described as follows: in vitro. Conditions: human. This is another data set of the same source.

`CC(C)OC(=O)[C@H](C)N[P@](=O)(OC[C@H]1O[C@@H](n2ccc(=O)[nH]c2=O)[C@](C)(F)[C@@H]1O)Oc1ccccc1` [Sofosbuvir]: the pEC50 (in general, −log10 of the EC50, conventionally taken in molar units) is 5.68 in [1] and 7.30 in [2]. For the same compound, the CC50 in [3] was > 10 µM; in data set [4], > 1 µM.

For the compound `Cc1cn([C@H]2C[C@H](N=[N+]=[N-])[C@@H](CO)O2)c(=O)[nH]c1=O` [AZT], in data set [5], the pEC50 is 9.10. Besides, the CC50 in data set [6] was > 1 µM.

Turning to PAP1, in data set [7], the “increased toxicity to E. coli compared to PAPS1” value is listed as > 10 fold. For the same compound, the pIC50 (as a rule, the negative decadic logarithm of the IC50, by convention in mol/L) in data set [8] is 9.54.

For the compound `Nc1ccn([C@@H]2CS[C@H](CO)O2)c(=O)n1` [3TC, Lamivudine], the CC50 in data set [9] is > 10 µM.

The record behind these values is patent publication US20200392192A1 (priority 2018, published 2020).
